# Source: PubChem BioAssay (NCI)
# Values joined by “and” are separate entries in the source; they are usually repeats but may differ in a detail not shown here. Equal values may be shown once.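 Values below derive from 48-hour exposures of cells grown in 96-well plates, with endpoints linearly interpolated between the two concentrations bracketing the appropriate inhibition level. GI50 marks 50% less growth. TGI denotes the concentration required for complete inhibition of growth.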
# What was measured:
# Assay in all cases: growth of human tumour cells (NCI), 48 h
# [1] = tested on: CAKI-1 renal
# [2] = tested on: BT-549 breast
# [3] = tested on: U251 CNS
# [4] = tested on: 786-0 renal
# [5] = tested on: HT29 colon
# [6] = tested on: HOP-92 NSCLC
# [7] = tested on: SW-620 colon
# [8] = tested on: M14 melanoma
# [9] = tested on: LOX IMVI melanoma
# [10] = tested on: T-47D breast
# [11] = tested on: UACC-257 melanoma
# [12] = tested on: MDA-MB-231 breast
# [13] = tested on: MDA-MB-435
# [14] = tested on: OVCAR-3 ovarian
# [15] = tested on: NCI/ADR-RES ovarian
# [16] = tested on: HCT-15 colon
# [17] = tested on: HL-60(TB) leukemia
# [18] = tested on: UACC-62 melanoma
# [19] = tested on: PC-3 prostate
# [20] = tested on: NCI-H23 lung
# [21] = tested on: UO-31 renal
# [22] = tested on: HCC-2998 colon
# [23] = tested on: EKVX NSCLC
# [24] = tested on: A498 renal
# [25] = tested on: NCI-H522 lung
# [26] = tested on: IGROV1 ovarian
# [27] = tested on: CCRF-CEM leukemia
# [28] = tested on: RXF 393 renal
# [29] = tested on: SF-539 CNS
# [30] = tested on: OVCAR-8 ovarian
# [31] = tested on: SR leukemia
# [32] = tested on: RPMI-8226 leukemia
# [33] = tested on: SK-MEL-28 melanoma
# [34] = tested on: NCI-H460 lung
# [35] = tested on: SK-OV-3 ovarian
# [36] = tested on: HCT-116 colon
# [37] = tested on: SK-MEL-2 melanoma
# [38] = tested on: SN12C renal
# [39] = tested on: SF-268 CNS
# [40] = tested on: TK-10 renal
# [41] = tested on: DU-145 prostate
# [42] = tested on: KM12 colon
# [43] = tested on: SNB-75 CNS
# [44] = tested on: MALME-3M melanoma
# [45] = tested on: HS 578T breast
# [46] = tested on: SNB-19 CNS
# [47] = tested on: A549 NSCLC
# [48] = tested on: HOP-62 NSCLC
# [49] = tested on: MOLT-4 leukemia
# [50] = tested on: NCI-H226 lung
# [51] = tested on: MCF7 breast
# [52] = tested on: SF-295 CNS
# [53] = tested on: OVCAR-5 ovarian
# [54] = tested on: ACHN renal
# [55] = tested on: COLO 205 colon
# [56] = tested on: K-562 leukemia
# [57] = tested on: SK-MEL-5 melanoma
smiles,measurement,setting,value
CNC(=O)c1cccc(-c2ccc3c(N4CCOC[C@@H]4C)nc(N4CCOC[C@@H]4C)nc3n2)c1,GI50,[1],69.3 nM and 148 nM and 144 nM
same,TGI,[1],1830 nM and > 3360 nM
same,GI50,[2],43.6 nM and 95.3 nM and 61.4 nM
same,TGI,[2],1380 nM and 1080 nM and 648 nM
same,GI50,[3],236 nM and 422 nM and 176 nM
same,TGI,[3],> 100000 nM
same,GI50,[4],229 nM and 252 nM
same,TGI,[4],> 32800 nM
same,GI50,[5],144 nM and 355 nM and 323 nM
same,TGI,[5],> 100000 nM
same,GI50,[6],18.7 nM and < 13.3 nM
same,TGI,[6],238 nM and 72.8 nM
same,GI50,[7],260 nM and 356 nM and 293 nM
same,TGI,[7],> 100000 nM
same,GI50,[8],47 nM and 177 nM and 133 nM
same,TGI,[8],44500 nM and > 6820 nM and 14900 nM
same,GI50,[9],113 nM and 217 nM and 228 nM
same,TGI,[9],5240 nM and > 4470 nM and > 43900 nM
same,GI50,[10],16.8 nM and 28.7 nM and 18.6 nM
same,TGI,[10],246 nM and 212 nM and 103 nM
same,GI50,[11],51.8 nM and 188 nM and 58.9 nM
same,TGI,[11],1210 nM and 1690 nM and 487 nM
same,GI50,[12],181 nM and 168 nM and 184 nM
same,TGI,[12],34300 nM and > 10000 nM and > 64000 nM
same,GI50,[13],92.5 nM and 204 nM and 147 nM
same,TGI,[13],1800 nM and 1340 nM and 1270 nM
same,GI50,[14],59.7 nM and 222 nM and 139 nM
same,GI50,[15],240 nM and 412 nM and 371 nM
same,TGI,[15],3560 nM and 5120 nM and > 25100 nM
same,GI50,[16],90.9 nM and 267 nM and 160 nM
same,TGI,[16],> 100000 nM
same,GI50,[17],353 nM and 370 nM and 2910 nM
same,TGI,[17],25200 nM and > 10000 nM and 64100 nM
same,GI50,[18],39.3 nM and 82 nM and 80.2 nM
same,TGI,[18],339 nM and 438 nM and 452 nM
same,GI50,[19],21.9 nM and 80.9 nM and 38.4 nM
same,GI50,[20],111 nM and 273 nM and 245 nM
same,TGI,[20],> 100000 nM
same,GI50,[21],27.8 nM and 60.4 nM and 32.8 nM
same,GI50,[22],221 nM and 430 nM and 182 nM
same,TGI,[22],> 100000 nM and > 10000 nM and 36600 nM
same,GI50,[23],99.8 nM and 139 nM
same,TGI,[23],765 nM and 2000 nM
same,GI50,[24],18.3 nM and 25.8 nM and < 14.1 nM
same,TGI,[24],82.7 nM and 142 nM and 80.1 nM
same,GI50,[25],50.5 nM and 99.1 nM and 47.9 nM
same,TGI,[25],> 100000 nM
same,GI50,[26],44.3 nM and 38.1 nM and 22.4 nM
same,GI50,[27],177 nM and 217 nM and 163 nM
same,TGI,[27],> 100000 nM
same,GI50,[28],48.8 nM and 60 nM and 28 nM
same,TGI,[28],470 nM and 370 nM and 337 nM
same,GI50,[29],150 nM and 166 nM and 125 nM
same,TGI,[29],1490 nM and 1260 nM and 677 nM
same,GI50,[30],162 nM and 313 nM and 164 nM
same,TGI,[30],27700 nM and > 10000 nM and 3420 nM
same,GI50,[31],249 nM and 133 nM and 104 nM
same,TGI,[31],> 100000 nM
same,GI50,[32],48.6 nM and 47.3 nM and 36.3 nM
same,GI50,[33],41 nM and 123 nM and 40.2 nM
same,TGI,[33],720 nM and 3010 nM and 671 nM
same,GI50,[34],42.2 nM and 85.3 nM and 53.8 nM
same,TGI,[34],> 100000 nM
same,GI50,[35],33.3 nM and 90.3 nM and 44.6 nM
same,TGI,[35],479 nM and 451 nM and 438 nM
same,GI50,[36],303 nM and 451 nM and 407 nM
same,TGI,[36],> 100000 nM
same,GI50,[37],88.9 nM and 216 nM and 215 nM
same,TGI,[37],5470 nM and 1160 nM and 912 nM
same,GI50,[38],132 nM and 121 nM and 129 nM
same,TGI,[38],> 100000 nM
same,GI50,[39],65.3 nM and 209 nM and 212 nM
same,TGI,[39],10500 nM and > 6590 nM and > 100000 nM
same,GI50,[40],61.6 nM and 146 nM and 113 nM
same,TGI,[40],2250 nM and 1630 nM and 1480 nM
same,GI50,[41],162 nM and 302 nM and 250 nM
same,TGI,[41],> 100000 nM
same,GI50,[42],94.7 nM and 273 nM and 179 nM
same,TGI,[42],> 100000 nM
same,GI50,[43],27 nM and 117 nM and 31.6 nM
same,TGI,[43],373 nM and 647 nM and 403 nM
same,GI50,[44],20.1 nM and 35.1 nM and < 20.4 nM
same,TGI,[44],550 nM and 524 nM and 138 nM
same,GI50,[45],62.7 nM and 61.8 nM and 116 nM
same,TGI,[45],448 nM and 320 nM and 459 nM
same,GI50,[46],448 nM and 290 nM
same,TGI,[46],> 93300 nM
same,GI50,[47],124 nM and 242 nM and 142 nM
same,TGI,[47],> 100000 nM and > 10000 nM and 11500 nM
same,GI50,[48],153 nM and 273 nM and 170 nM
same,TGI,[48],> 100000 nM and > 5180 nM and 10200 nM
same,GI50,[49],101 nM and 146 nM and 214 nM
same,TGI,[49],28900 nM and > 10000 nM and > 44400 nM
same,GI50,[50],43.8 nM and 149 nM and 115 nM
same,TGI,[50],770 nM and 2900 nM and 959 nM
same,GI50,[51],29.5 nM and 98 nM and 36.8 nM
same,TGI,[51],5510 nM and > 3460 nM and 9700 nM
same,GI50,[52],49.4 nM and 123 nM and 33.6 nM
same,TGI,[52],392 nM and 795 nM and 220 nM
same,GI50,[53],76.5 nM and 122 nM and 73.9 nM
same,TGI,[53],73700 nM and > 4520 nM
same,GI50,[54],95 nM and 115 nM and 119 nM
same,TGI,[54],> 100000 nM
same,GI50,[55],64.8 nM and 204 nM and 142 nM
same,GI50,[56],499 nM and 372 nM and 445 nM
same,TGI,[56],> 100000 nM
same,GI50,[57],109 nM and 170 nM and 176 nM
same,TGI,[57],718 nM and 990 nM and 2870 nM
